Laboratory results reported in PubChem BioAssay AID2060491 (Molecular Pharmacology Branch, DTP, NCI, 2025).

Test system: 857933-349-R-J2-PDC complex spheroids, viability
Assay: Anticancer human tumor 857933-349-R-J2-PDC patient-derived colon adenocarcinoma cell line growth inhibition [GQUAD]
Settings: for IC50: curve of first compound; for viability, T/C: stronger effect = lower value
Text: DNA G-quadruplex Stabilizer Agents in Combinations in Complex Spheroids
A high-throughput screen of multi-cell type tumor spheroids was designed to identify active combinations of DNA G-quadruplex stabilizer agents and targeted small molecules. Complex spheroids include a stromal component modeled by human endothelial cells (HUVEC) and fibroblasts modeled by human mesenchymal stem cells (MSCs). The concentration ranges selected for each drug and investigational agent were based upon clinically achievable concentrations if the clinical Cmax of the agent was known.
Compounds. The drugs and investigational agents: pidnarulex (CX-5461; NSC782164), APTO-253 (NSC789042), BRACO-19 (NSC847499), peposertib (NSC802822), ceralasertib (NSC780249), elimusertib (NSC800525), camonsertib (NSC841442), AZD-1390 (NSC803789), olaparib (NSC753686), talazoparib (NSC767125), ART-558 (NSC835418), sotorasib (NSC818433), MRTX-1133 (NSC836407), SN-38 (NSC673596), topotecan (NSC609699), etoposide (NSC141540), doxorubicin (NSC123127), gemcitabine (NSC613327), 5-fluorouracil (NSC19893), paclitaxel (NSC125973), vemurafenib (NSC761431), panobinostat (NSC761190), R-306465 (JNJ-16241199; NSC773264), adavosertib (NSC754352), TP-3654 (NSC805149), carboplatin (NSC241240), KSQ-4279 (NSC840948), and staurosporine (NSC755774) were obtained from the National Cancer Institute (NCI) Developmental Therapeutics Program Chemical Repository (34). The FDA-approved anticancer drug set is available from the NCI Developmental Therapeutics Program. […] The stock solutions were prepared in dimethyl sulfoxide (DMSO, Sigma-Aldrich, St. Louis, MO, cat. D2650) at 800-fold the tested concentration and stored at -70 degrees C prior to their use. All drugs and investigational agents were tested over a range starting from a high concentration at or near the clinical Cmax and decreasing in half-log increments. If the clinical Cmax for an agent had not been determined, the highest concentration tested was 10 microM.
2.3 Cell Culture. All cells were maintained in an incubator at 37 degrees C and 5% CO2 with 95% humidity. The PDC lines were cultured according to standard operating procedures established by the NCI PDMR. All PDCs were thawed and cultured in Matrigel-coated flasks prepared with a working solution of 1X Ham's F-12 nutrient mix, without supplementation (Invitrogen, cat. 11765054), 100 U/mL penicillin-streptomycin (Invitrogen, cat. 15140122), and 2.5% Matrigel (Corning Inc., cat. 354248) for the first three passages. The 857933-349-R-J2-PDC line was cultured in 6C/Colon 1B media, which includes advanced DMEM/F-12 (Thermo Fisher Scientific, cat. 12634028), 10 mM HEPES (Thermo Fisher Scientific, cat. 15630080), 1X GlutaMAX supplement (Thermo Fisher Scientific, cat. 35050061), 0.1 mg/mL primocin (InvivoGen, cat. ant-pm-2), 10% defined fetal bovine serum, heat inactivated (HyClone Laboratories Inc., cat. SH30070.03HI), 50% L-WRN conditioned media (ATCC, cat. CRL-3276), 1.25 mM N-Acetyl-L-cysteine (Sigma-Aldrich, cat. A9165), 10 mM nicotinamide (Sigma-Aldrich, cat. N0636), 1X B-27 supplement (Thermo Fisher Scientific, cat. 17504044), 1X N-2 supplement (Thermo Fisher Scientific, cat. 17502048), 10 microM Y-27632 dihydrochloride (Tocris Bioscience, cat. 1254), and 50 ng/mL human EGF recombinant protein (Thermo Fisher Scientific, cat. PHG0311). The 485176-168-R4-J1-PDC line was cultured in Panc media, which includes all 6C/Colon 1B media components plus 100 ng/mL human FGF-10 (Thermo Fisher Scientific, cat. 100-26), 500 nM SB-431542 (Selleckchem, cat. S1067), and gastrin (Tocris, cat. 3006).
[…]
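Also: spheroids exposed to compounds for one week before readout.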
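For viability, T/C in this document: percent viability relative to vehicle DMSO wells taken as 100%.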

CC(C)n1c(=O)n(C)c2cnc3cc(F)c(-c4ccc(OCCCN5CCCCC5)nc4)cc3c21 + CN(C)c1ccc(Nc2c3ccc(NC(=O)CCN4CCCC4)cc3nc3cc(NC(=O)CCN4CCCC4)ccc23)cc1
IC50 (second compound 0.0316 µM): > 10 µM | IC50 (second compound 0.1 µM): > 10 µM | IC50 (second compound 0.316 µM): > 10 µM | IC50 (second compound 1 µM): > 10 µM | IC50 (second compound 3.16 µM): > 10 µM | IC50 (second compound 10 µM): > 10 µM | viability, T/C (second compound 0.0316 µM, first compound 0.0316 µM): 108% | viability, T/C (second compound 0.0316 µM, first compound 0.1 µM): 96.8% | viability, T/C (second compound 0.0316 µM, first compound 0.316 µM): 108% | viability, T/C (second compound 0.0316 µM, first compound 1 µM): 104% | viability, T/C (second compound 0.0316 µM, first compound 3.16 µM): 105% | viability, T/C (second compound 0.0316 µM, first compound 10 µM): 102% | viability, T/C (second compound 0.1 µM, first compound 0.0316 µM): 103% | viability, T/C (second compound 0.1 µM, first compound 0.1 µM): 101% | viability, T/C (second compound 0.1 µM, first compound 0.316 µM): 103% | viability, T/C (second compound 0.1 µM, first compound 1 µM): 105% | viability, T/C (second compound 0.1 µM, first compound 3.16 µM): 104% | viability, T/C (second compound 0.1 µM, first compound 10 µM): 102% | viability, T/C (second compound 0.316 µM, first compound 0.0316 µM): 103% | viability, T/C (second compound 0.316 µM, first compound 0.1 µM): 103% | viability, T/C (second compound 0.316 µM, first compound 0.316 µM): 104% | viability, T/C (second compound 0.316 µM, first compound 1 µM): 99.1% | viability, T/C (second compound 0.316 µM, first compound 3.16 µM): 115% | viability, T/C (second compound 0.316 µM, first compound 10 µM): 98.3% | viability, T/C (second compound 1 µM, first compound 0.0316 µM): 101% | viability, T/C (second compound 1 µM, first compound 0.1 µM): 92.3% | viability, T/C (second compound 1 µM, first compound 0.316 µM): 103% | viability, T/C (second compound 1 µM, first compound 1 µM): 95% | viability, T/C (second compound 1 µM, first compound 3.16 µM): 103% | viability, T/C (second compound 1 µM, first compound 10 µM): 94% | viability, T/C (second compound 3.16 µM, first compound 0.0316 µM): 90.7% | viability, T/C (second compound 3.16 µM, first compound 0.1 µM): 83.5% | viability, T/C (second compound 3.16 µM, first compound 0.316 µM): 93.1% | viability, T/C (second compound 3.16 µM, first compound 1 µM): 85.5% | viability, T/C (second compound 3.16 µM, first compound 3.16 µM): 98.1% | viability, T/C (second compound 3.16 µM, first compound 10 µM): 70.3% | viability, T/C (second compound 10 µM, first compound 0.0316 µM): 72.8% | viability, T/C (second compound 10 µM, first compound 0.1 µM): 74.7% | viability, T/C (second compound 10 µM, first compound 0.316 µM): 76% | viability, T/C (second compound 10 µM, first compound 1 µM): 74.4% | viability, T/C (second compound 10 µM, first compound 3.16 µM): 74.9% | viability, T/C (second compound 10 µM, first compound 10 µM): 63.7%
